These compounds were tested against human Nav1.5 (Homo sapiens (Human), UniProt Q14524) (assay: Qpatch automated patch-clamp, peak Nav1.5 current inhibition, 5-Hz AF-like assay (holding potential -85 mV)). Settings: CHO-K1 cells stably expressing human Nav1.5, Table 6, Examples 63-90, read-out: Nav1.5 IC50 (5 Hz, AF Rate).
Format: cell-based
Excerpt: Electrophysiology was used to measure the ionic currents in isolated living cells using automated patch-clamp recording, performed using an automated patch-clamp machine called Qpatch (Sophion Bioscience). Two different assay conditions were used to identify compounds with atrial-selective potential. The 5-Hz AF-like assay has more depolarized holding potential at −85 mV to mimic atrial resting membrane potential (RMP) and was used to identify compounds of strong rate-dependence. Active, rate-dependent compounds were then screened at 1 Hz (i.e., sinus rate) at the holding potential of −100 mV to mimic the ventricular scenario and help identify compounds with the largest potency separation or attenuation from the 5-Hz AF-like assay. Such compounds have the potential for treating AF without the QRS liability inherent to Class Ic drugs.
The sodium current conducted through a cell (via Nav1.5) or electrical signals were processed through a low-pass filter at 5 KHz, re-digitalized and acquired at 20 kHz. Series resistance was not compensated and leak subtraction was performed.
1 to 3 million Chinese Hamster Ovary cells (also known as CHO-K1) stably expressing human Nav1.5 were seeded into […] culture flasks with 25 mL medium (consisting of Gibco Dulbecco's Modified Eagle Medium as a base medium with 1% MEM non-essential amino acids, 400 μg/mL Geneticin, 5 μg/mL puromycin and 10% fetal bovine serum) 48-72 hours prior to the experiments. On the day of the experiment, cells were washed once with phosphate-buffered saline (also known as PBS; Gibco) detached with Detachin™ (Genlantis), and re-suspended in CHO—S-SFM II media (Gibco) at 200,000 cells/mL. The CHO—S-SFM II was replaced with assay solutions prior to the assays. Whole-cell currents were recorded at room temperature in the whole-cell configuration. The external aqueous assay solution (pH=7.4; Osm=307-315) contained the following (the concentration for each component is expressed in parentheses in mM): NaCl (140 mM), KCl (4 mM), CaCl2) (2 mM), MgCl2 (1 mM), 4-(2-hydroxyethyl)-1-piperazineethanesulfonic acid, also known as HEPES (10 mM), and glucose (5 mM). The internal aqueous assay solution (pH=7.2; Osm=292-295) contained the following (the concentration for each component is expressed in parentheses in mM): CsF (110 mM), CsCl (10 mM), NaCl (10 mM), HEPES (10 mM), and ethylene glycolbis(β-aminoethyl ether)-N,N,N′,N′-tetraacetic acid, also known as EGTA (10 mM).
To assess peak Nav1.5 current inhibition in an atrial fibrillation-mimicking condition (Nav1.5 IC50 (5 Hz, AF-like rate) (μM)), compounds were first prepared at 10 mM in DMSO, and cells were pre-incubated with test compounds at each concentration for 3 min. in an ascending order of 0, 0.37, 1.1, 3.3, 10 and 30 μM. An atrial action potential-like protocol consisting of a voltage ramp (+10 mV to −85 mV for a 150 ms duration and a holding potential at −85 mV) was then applied to cells at 5 Hz for 12 s until no further current change or inhibition was observed. The percent inhibition (expressed as ([Iafter compound treatment/Ibefore compound treatment]×100%) is calculated by normalizing the peak current amplitude at the last pulse of each of the 6 compound concentrations by the amplitude before exposure to the test compound. The compiled data was further normalized by vehicle control (DMSO) to account for Nav1.5 current run-down, and IC50 was calculated by Matlab (MathWorks, USA).

human Nav1.5, sequence (Q14524 whole entry): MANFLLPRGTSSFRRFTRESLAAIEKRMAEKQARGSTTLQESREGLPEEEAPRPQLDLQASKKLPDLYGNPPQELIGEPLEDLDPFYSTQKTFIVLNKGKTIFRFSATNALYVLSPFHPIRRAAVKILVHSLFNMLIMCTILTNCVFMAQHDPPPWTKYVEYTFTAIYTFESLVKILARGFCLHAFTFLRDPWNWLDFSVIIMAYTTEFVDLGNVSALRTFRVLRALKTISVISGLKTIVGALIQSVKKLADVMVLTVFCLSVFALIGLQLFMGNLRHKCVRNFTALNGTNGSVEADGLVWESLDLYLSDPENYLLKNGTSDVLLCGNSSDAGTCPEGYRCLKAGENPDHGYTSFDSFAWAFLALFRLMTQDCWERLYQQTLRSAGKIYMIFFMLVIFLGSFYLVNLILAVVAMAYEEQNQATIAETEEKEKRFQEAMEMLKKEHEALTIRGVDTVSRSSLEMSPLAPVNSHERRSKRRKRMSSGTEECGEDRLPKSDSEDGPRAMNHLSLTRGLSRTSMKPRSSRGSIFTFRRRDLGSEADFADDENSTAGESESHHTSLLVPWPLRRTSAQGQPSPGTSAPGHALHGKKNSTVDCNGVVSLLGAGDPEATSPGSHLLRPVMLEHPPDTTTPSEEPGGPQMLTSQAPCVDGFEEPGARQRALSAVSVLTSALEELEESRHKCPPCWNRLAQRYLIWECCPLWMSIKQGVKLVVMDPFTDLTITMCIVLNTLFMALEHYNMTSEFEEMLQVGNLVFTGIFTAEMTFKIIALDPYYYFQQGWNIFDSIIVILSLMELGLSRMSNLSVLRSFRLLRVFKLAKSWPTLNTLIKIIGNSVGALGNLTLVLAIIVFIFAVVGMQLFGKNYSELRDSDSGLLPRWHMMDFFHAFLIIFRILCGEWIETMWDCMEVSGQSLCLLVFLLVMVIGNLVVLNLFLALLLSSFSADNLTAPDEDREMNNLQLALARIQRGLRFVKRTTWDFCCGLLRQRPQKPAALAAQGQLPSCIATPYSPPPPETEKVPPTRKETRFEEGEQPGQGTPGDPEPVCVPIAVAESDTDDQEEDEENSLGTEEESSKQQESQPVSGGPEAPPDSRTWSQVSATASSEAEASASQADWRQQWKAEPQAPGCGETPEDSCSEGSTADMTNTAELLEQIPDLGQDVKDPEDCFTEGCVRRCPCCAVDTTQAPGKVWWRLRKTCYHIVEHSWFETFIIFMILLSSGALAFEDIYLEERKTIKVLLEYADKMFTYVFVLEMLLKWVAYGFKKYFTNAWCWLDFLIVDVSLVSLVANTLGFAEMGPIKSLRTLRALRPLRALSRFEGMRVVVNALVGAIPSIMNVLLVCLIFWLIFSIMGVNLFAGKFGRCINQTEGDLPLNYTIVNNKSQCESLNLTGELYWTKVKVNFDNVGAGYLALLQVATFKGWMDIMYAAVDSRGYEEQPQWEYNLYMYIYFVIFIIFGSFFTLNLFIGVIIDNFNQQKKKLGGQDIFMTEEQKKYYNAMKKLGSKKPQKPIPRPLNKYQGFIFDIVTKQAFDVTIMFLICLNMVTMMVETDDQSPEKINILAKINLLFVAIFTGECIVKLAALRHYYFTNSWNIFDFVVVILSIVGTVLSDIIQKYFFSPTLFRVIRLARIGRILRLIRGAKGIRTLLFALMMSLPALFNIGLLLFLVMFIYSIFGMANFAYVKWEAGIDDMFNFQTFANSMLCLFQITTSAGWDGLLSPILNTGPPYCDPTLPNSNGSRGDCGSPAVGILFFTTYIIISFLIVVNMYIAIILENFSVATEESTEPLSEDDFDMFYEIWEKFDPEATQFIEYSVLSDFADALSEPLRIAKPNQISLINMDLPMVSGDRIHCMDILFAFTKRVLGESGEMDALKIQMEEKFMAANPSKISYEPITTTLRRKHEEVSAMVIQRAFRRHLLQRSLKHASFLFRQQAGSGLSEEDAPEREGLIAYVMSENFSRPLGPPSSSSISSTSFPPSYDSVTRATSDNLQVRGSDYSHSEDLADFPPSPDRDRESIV

Question: With `Cc1ccc(F)c(Cn2nnc(-c3cccc([C@@](C)(O)CS(N)(=O)=O)n3)n2)c1Cl` [Example 63] as the compound, how does the IC50 read?
Answer: 3.8 µM

Question: With `C[C@](O)(CS(N)(=O)=O)c1cccc(-c2nnn(Cc3cc(F)ccc3Br)n2)n1` [Example 64] as the compound, how does the IC50 read?
Answer: 13 µM

Question: `C[C@](O)(CS(N)(=O)=O)c1cccc(-c2nnn(Cc3ccc(Br)cc3F)n2)n1` [Example 65] was tested. Which IC50 did it give?
Answer: 17 µM

Question: `C[C@](O)(CS(N)(=O)=O)c1cccc(-c2nnn(Cc3cccc(Br)c3F)n2)n1` [Example 66] was tested. Which IC50 did it give?
Answer: 28 µM

Question: `C[C@](O)(CS(N)(=O)=O)c1cccc(-c2nnn(Cc3c(F)cccc3Br)n2)n1` [Example 67] was tested. Which IC50 did it give?
Answer: 8.1 µM

Question: `Cc1cc(C)c(C)c(Cn2nnc(-c3cccc([C@@](C)(O)CS(N)(=O)=O)n3)n2)c1` [Example 68] was tested. Which IC50 did it give?
Answer: 16 µM

Question: `Cc1cccc(Cn2nnc(-c3cccc([C@@](C)(O)CS(N)(=O)=O)n3)n2)c1C` [Example 69] was tested. Which IC50 did it give?
Answer: 11 µM

Question: `C[C@](O)(CS(N)(=O)=O)c1cccc(-c2nnn(Cc3cccc(Cl)c3Cl)n2)n1` [Example 70] was tested. Which IC50 did it give?
Answer: 22 µM

Question: How did the IC50 turn out when `Cc1ccc(C(C)C)cc1Cn1nnc(-c2cccc([C@@](C)(O)CS(N)(=O)=O)n2)n1` [Example 72] was run?
Answer: 7.3 µM

Question: How did the IC50 turn out when `C[C@](O)(CS(N)(=O)=O)c1cccc(-c2nnn(Cc3c(F)ccc(Cl)c3F)n2)n1` [Example 73] was run?
Answer: 19 µM

Question: `C[C@](O)(CS(N)(=O)=O)c1cccc(-c2nnn(Cc3cc(C(F)(F)F)ccc3Cl)n2)n1` [Example 74] was tested. Which IC50 did it give?
Answer: 21 µM

Same assay, conditions: CHO-K1 cells stably expressing human Nav1.5, holding potential -85 mV, Table 5, read-out: Nav1.5 IC50 (5 Hz, AF Rate)

Question: How did the IC50 turn out when “3-(6-(1-(2-fluoro-5-(trifluoromethoxy)benzyl)-1H-pyrazol-3-yl)pyridin-2-yl)-3-hydroxy-2-methylbutane-2-sulfonamide [Example 54]” was run?
Answer: 4.2 µM

Question: How did the IC50 turn out when `CCC(O)(CS(N)(=O)=O)c1cccc(-c2ccn(Cc3cc(OC(F)(F)F)ccc3F)n2)n1` (racemic) [Example 35, 2-(6-(1-(2-fluoro-5-(trifluoromethoxy)benzyl)-1H-pyrazol-3-yl)pyridin-2-yl)-2-hydroxybutane-1-sulfonamide] was run?
Answer: 4 µM

Question: `NS(=O)(=O)CC(O)c1cccc(-c2nnn(Cc3cc(OC(F)(F)F)ccc3F)n2)n1` (racemic) [Example 48, 2-(6-(2-(2-fluoro-5-(trifluoromethoxy)benzyl)-2H-tetrazol-5-yl)pyridin-2-yl)-2-hydroxyethane-1-sulfonamide] was tested. Which IC50 did it give?
Answer: 5.5 µM

Question: How did the IC50 turn out when `CC(C)(C(O)c1cccc(-c2ccn(Cc3cc(OC(F)(F)F)ccc3F)n2)n1)S(N)(=O)=O` (racemic) [Example 53, 1-(6-(1-(2-fluoro-5-(trifluoromethoxy)benzyl)-1H-pyrazol-3-yl)pyridin-2-yl)-1-hydroxy-2-methylpropane-2-sulfonamide] was run?
Answer: 12 µM

Question: Which IC50 does the source give for `CC(O)(CS(N)(=O)=O)c1cccc(-c2nnn(Cc3cc(OC(F)(F)F)ccc3F)n2)n1` (racemic) [Rac-1 + 2, 2-(6-(2-(2-fluoro-5-(trifluoromethoxy)benzyl)-2H-tetrazol-5-yl)pyridin-2-yl)-2-hydroxypropane-1-sulfonamide] here?
Answer: 3.6 µM

Question: Which IC50 does the source give for `CC(O)(CS(N)(=O)=O)c1cccc(-c2nnn(Cc3c(F)ccc4c3OC(F)(F)O4)n2)n1` (racemic) [Rac-3 + 4, 2-hydroxy-2-(6-(2-((2,2,5-trifluorobenzo[d][1,3]dioxol-4-yl)methyl)-2H-tetrazol-5-yl)pyridin-2-yl)propane-1-sulfonamide] here?
Answer: 7 µM

Question: How did the IC50 turn out when `CC(O)(CS(N)(=O)=O)c1cccc(-c2nc(Cc3cc(OC(F)(F)F)ccc3F)no2)n1` (racemic) [Rac-57 + 58, 2-(6-(3-(2-fluoro-5-(trifluoromethoxy)benzyl)-1,2,4-oxadiazol-5-yl)pyridin-2-yl)-2-hydroxypropane-1-sulfonamide] was run?
Answer: 3.7 µM

Question: `CC(O)(CS(N)(=O)=O)c1cccc(-c2nnn(Cc3cc(F)ccc3F)n2)n1` (single isomer, unassigned) [Example 17, (R or S)-2-(6-(2-(2,5-difluorobenzyl)-2H-tetrazol-5-yl)pyridin-2-yl)-2-hydroxypropane-1-sulfonamide] was tested. Which IC50 did it give?
Answer: 24 µM

Question: How did the IC50 turn out when `CC(O)(CS(N)(=O)=O)c1cccc(-c2nnn(Cc3cc(F)ccc3F)n2)n1` (single isomer, unassigned) [Example 18, (R or S)-2-(6-(2-(2,5-difluorobenzyl)-2H-tetrazol-5-yl)pyridin-2-yl)-2-hydroxypropane-1-sulfonamide] was run?
Answer: 20 µM

Question: For `CC(O)(CS(N)(=O)=O)c1cccc(-c2nnn(Cc3cc(OC(F)(F)F)ccc3F)n2)c1` (single isomer, unassigned) [Example 25, (R or S)-2-(3-(2-(2-fluoro-5-(trifluoromethoxy)benzyl)-2H-tetrazol-5-yl)phenyl)-2-hydroxypropane-1-sulfonamide], which IC50 is on record?
Answer: 5.5 µM

Question: Which IC50 does the source give for `CC(O)(CS(N)(=O)=O)c1cccc(-c2nnn(Cc3cc(OC(F)(F)F)ccc3F)n2)c1` (single isomer, unassigned) [Example 26, (R or S)-2-(3-(2-(2-fluoro-5-(trifluoromethoxy)benzyl)-2H-tetrazol-5-yl)phenyl)-2-hydroxypropane-1-sulfonamide] here?
Answer: 1.8 µM

Question: For `CC(O)(CS(N)(=O)=O)c1cccc(-c2nnn(Cc3cc(OCC(F)(F)F)ccc3F)n2)n1` (single isomer, unassigned) [Example 29, (R or S)-2-(6-(2-(2-fluoro-5-(2,2,2-trifluoroethoxy)benzyl)-2H-tetrazol-5-yl)pyridin-2-yl)-2-hydroxypropane-1-sulfonamide], which IC50 is on record?
Answer: 0.8 µM

Question: For `CC(O)(CS(N)(=O)=O)c1cccc(-c2nnn(Cc3cc(OCC(F)(F)F)ccc3F)n2)n1` (single isomer, unassigned) [Example 30, (R or S)-2-(6-(2-(2-fluoro-5-(2,2,2-trifluoroethoxy)benzyl)-2H-tetrazol-5-yl)pyridin-2-yl)-2-hydroxypropane-1-sulfonamide], which IC50 is on record?
Answer: 1 µM

Question: For `CC(O)(CS(N)(=O)=O)c1nc(-c2nnn(Cc3cc(OC(F)(F)F)ccc3F)n2)ccc1Cl` (single isomer, unassigned) [Example 42, (R or S)-2-(3-chloro-6-(2-(2-fluoro-5-(trifluoromethoxy)benzyl)-2H-tetrazol-5-yl)pyridin-2-yl)-2-hydroxypropane-1-sulfonamide], which IC50 is on record?
Answer: 12 µM

Question: Which IC50 does the source give for `CC(O)(CS(N)(=O)=O)c1nc(-c2nnn(Cc3cc(OC(F)(F)F)ccc3F)n2)ccc1Cl` (single isomer, unassigned) [Example 43, (R or S)-2-(3-chloro-6-(2-(2-fluoro-5-(trifluoromethoxy)benzyl)-2H-tetrazol-5-yl)pyridin-2-yl)-2-hydroxypropane-1-sulfonamide] here?
Answer: 8.2 µM

Question: For `CC(C(O)c1cccc(-c2nnn(Cc3cc(OC(F)(F)F)ccc3F)n2)n1)S(N)(=O)=O` (single isomer, unassigned) [Example 49, (JR or 1S,2R or 2S)-1-(6-(2-(2-fluoro-5-(trifluoromethoxy)benzyl)-2H-tetrazol-5-yl)pyridin-2-yl)-1-hydroxypropane-2-sulfonamide], which IC50 is on record?
Answer: 5.7 µM

Question: With `CC(C(O)c1cccc(-c2nnn(Cc3cc(OC(F)(F)F)ccc3F)n2)n1)S(N)(=O)=O` (single isomer, unassigned) [Example 50, (JR or 1S,2R or 2S)-1-(6-(2-(2-fluoro-5-(trifluoromethoxy)benzyl)-2H-tetrazol-5-yl)pyridin-2-yl)-1-hydroxypropane-2-sulfonamide] as the compound, how does the IC50 read?
Answer: 6.6 µM

Question: How did the IC50 turn out when `CC(O)(CS(N)(=O)=O)c1cccc(-c2cnn(Cc3cc(OC(F)(F)F)ccc3F)n2)n1` (single isomer, unassigned) [Example 62, (R or S)-2-(6-(2-(2-fluoro-5-(trifluoromethoxy)benzyl)-2H-1,2,3-triazol-4-yl)pyridin-2-yl)-2-hydroxypropane-1-sulfonamide] was run?
Answer: 3.4 µM

Reference: patent publication US20250034108A1, “SODIUM CHANNEL BLOCKERS” (NOVARTIS AG, priority 2023, published 2025)
